Results from ChEMBL document CHEMBL1140382, “11C-labeling of n-[4-[4-(2,3-dichlorophenyl)piperazin-1-yl]butyl]arylcarboxamide derivatives and evaluation as potential radioligands for PET imaging of dopamine D3 receptors” (J Med Chem, 2005).

Assays:
[1] = target: T1, D(4) dopamine receptor (Rattus norvegicus, UniProt P30729); assay: Binding affinity for rat dopamine D4 receptor using [11C] radiotracer
T1 sequence (P30729 whole entry): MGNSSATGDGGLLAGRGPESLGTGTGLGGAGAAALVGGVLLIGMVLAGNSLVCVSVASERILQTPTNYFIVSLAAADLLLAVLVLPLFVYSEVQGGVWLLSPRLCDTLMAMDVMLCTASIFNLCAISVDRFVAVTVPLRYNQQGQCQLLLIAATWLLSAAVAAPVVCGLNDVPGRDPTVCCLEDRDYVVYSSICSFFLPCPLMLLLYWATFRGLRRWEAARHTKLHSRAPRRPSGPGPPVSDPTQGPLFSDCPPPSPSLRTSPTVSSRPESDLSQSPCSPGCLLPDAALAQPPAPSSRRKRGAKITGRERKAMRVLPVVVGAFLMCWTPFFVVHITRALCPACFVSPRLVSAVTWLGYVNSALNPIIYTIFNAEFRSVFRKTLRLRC

[2] = target: Sigma non-opioid intracellular receptor 1 (Rattus norvegicus, UniProt Q9R0C9); assay: Binding affinity for rat Opioid receptor sigma 1 using [11C] radiotracer
Sigma non-opioid intracellular receptor 1, sequence (Q9R0C9 whole entry): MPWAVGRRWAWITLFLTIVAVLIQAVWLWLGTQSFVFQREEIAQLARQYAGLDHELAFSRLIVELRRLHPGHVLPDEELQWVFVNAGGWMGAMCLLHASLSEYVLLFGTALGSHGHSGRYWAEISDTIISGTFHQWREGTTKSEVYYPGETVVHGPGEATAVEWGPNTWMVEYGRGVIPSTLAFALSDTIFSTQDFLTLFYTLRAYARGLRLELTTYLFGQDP

[3] = target: D(2) dopamine receptor (Rattus norvegicus, UniProt P61169); assay: Binding affinity towards rat dopamine D2 receptor using [11C] radiotracer
D(2) dopamine receptor, sequence (P61169 whole entry): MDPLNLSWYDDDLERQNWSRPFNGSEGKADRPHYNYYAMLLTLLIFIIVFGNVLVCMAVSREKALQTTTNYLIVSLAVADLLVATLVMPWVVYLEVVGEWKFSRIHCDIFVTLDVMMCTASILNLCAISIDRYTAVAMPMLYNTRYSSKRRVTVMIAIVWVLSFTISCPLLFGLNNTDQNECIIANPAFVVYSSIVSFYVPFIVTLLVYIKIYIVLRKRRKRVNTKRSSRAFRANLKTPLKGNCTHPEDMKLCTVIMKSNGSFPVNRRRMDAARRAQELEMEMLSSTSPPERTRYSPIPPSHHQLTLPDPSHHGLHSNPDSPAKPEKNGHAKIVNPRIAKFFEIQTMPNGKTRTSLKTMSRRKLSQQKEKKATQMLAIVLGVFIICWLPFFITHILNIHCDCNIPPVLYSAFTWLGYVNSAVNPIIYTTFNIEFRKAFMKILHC

[4] = target: D(3) dopamine receptor (Rattus norvegicus) (UniProt P19020)
D(3) dopamine receptor (Rattus norvegicus), sequence (P19020 whole entry): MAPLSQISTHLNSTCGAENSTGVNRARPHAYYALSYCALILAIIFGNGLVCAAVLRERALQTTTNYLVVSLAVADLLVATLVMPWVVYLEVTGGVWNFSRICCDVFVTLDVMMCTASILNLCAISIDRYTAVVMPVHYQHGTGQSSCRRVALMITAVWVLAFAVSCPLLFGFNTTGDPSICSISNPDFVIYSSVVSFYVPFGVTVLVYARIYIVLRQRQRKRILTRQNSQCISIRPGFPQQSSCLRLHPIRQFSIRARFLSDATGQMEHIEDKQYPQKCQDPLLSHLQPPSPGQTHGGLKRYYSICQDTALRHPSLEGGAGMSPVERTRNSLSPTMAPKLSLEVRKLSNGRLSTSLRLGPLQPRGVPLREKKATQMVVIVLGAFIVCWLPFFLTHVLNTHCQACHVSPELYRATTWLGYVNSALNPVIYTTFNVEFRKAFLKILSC

[5] = target: D(3) dopamine receptor (Rattus norvegicus, UniProt P19020); assay: Binding affinity for rat dopamine D3 receptor using [11C]GR-218,231
D(3) dopamine receptor, sequence (P19020 whole entry): as above

Ki [1]	Ki [2]	Ki [3]	pKi [4]	Ki [5]	SMILES
373 nM	180 nM	720 nM	–	–	COc1cccc2cc(C(=O)NCCCCN3CCN(c4cccc(Cl)c4Cl)CC3)oc12
–	–	–	9	–	CCCN(CCC)C1CCc2cc(CS(=O)(=O)c3ccc(OC)cc3)ccc2C1 (stereo not drawn)
830 nM	342 nM	720 nM	–	–	COc1c(C(=O)NCCCCN2CCN(c3cccc(Cl)c3Cl)CC2)ccc2ccccc12
–	–	–	–	2 nM	COc1cc(Br)cc(C(=O)NCCCCN2CCN(c3cccc(Cl)c3Cl)CC2)c1OC
